For this assay, the target named is Ubiquitin carboxyl-terminal hydrolase 8 (Homo sapiens) (UniProt P40818). As to the kind of experiment: Ubiquitin-specific protease 8 inhibitors, concentration-effect, biochemical, validation of initial actives (AID 1645862).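 Also: potency reflects inhibition of USP8 cleavage of a ubiquitin rhodamine substrate.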 The note with it: recombinant USP8 deubiquitinase activity assay.

Drawing on PubChem BioAssay AID1645862 (Buhrlage Lab, Dana-Farber Cancer Institute and Novartis …, 2021), this text covers IC50 for 80 compounds.

Molecules are shown by their SMILES. Activity calls are given as the source filed them. No rule for the calls is given here. Where only a bound is given, the exact number is not on record here.

Ubiquitin carboxyl-terminal hydrolase 8 (Homo sapiens), sequence (P40818 whole entry, looked up): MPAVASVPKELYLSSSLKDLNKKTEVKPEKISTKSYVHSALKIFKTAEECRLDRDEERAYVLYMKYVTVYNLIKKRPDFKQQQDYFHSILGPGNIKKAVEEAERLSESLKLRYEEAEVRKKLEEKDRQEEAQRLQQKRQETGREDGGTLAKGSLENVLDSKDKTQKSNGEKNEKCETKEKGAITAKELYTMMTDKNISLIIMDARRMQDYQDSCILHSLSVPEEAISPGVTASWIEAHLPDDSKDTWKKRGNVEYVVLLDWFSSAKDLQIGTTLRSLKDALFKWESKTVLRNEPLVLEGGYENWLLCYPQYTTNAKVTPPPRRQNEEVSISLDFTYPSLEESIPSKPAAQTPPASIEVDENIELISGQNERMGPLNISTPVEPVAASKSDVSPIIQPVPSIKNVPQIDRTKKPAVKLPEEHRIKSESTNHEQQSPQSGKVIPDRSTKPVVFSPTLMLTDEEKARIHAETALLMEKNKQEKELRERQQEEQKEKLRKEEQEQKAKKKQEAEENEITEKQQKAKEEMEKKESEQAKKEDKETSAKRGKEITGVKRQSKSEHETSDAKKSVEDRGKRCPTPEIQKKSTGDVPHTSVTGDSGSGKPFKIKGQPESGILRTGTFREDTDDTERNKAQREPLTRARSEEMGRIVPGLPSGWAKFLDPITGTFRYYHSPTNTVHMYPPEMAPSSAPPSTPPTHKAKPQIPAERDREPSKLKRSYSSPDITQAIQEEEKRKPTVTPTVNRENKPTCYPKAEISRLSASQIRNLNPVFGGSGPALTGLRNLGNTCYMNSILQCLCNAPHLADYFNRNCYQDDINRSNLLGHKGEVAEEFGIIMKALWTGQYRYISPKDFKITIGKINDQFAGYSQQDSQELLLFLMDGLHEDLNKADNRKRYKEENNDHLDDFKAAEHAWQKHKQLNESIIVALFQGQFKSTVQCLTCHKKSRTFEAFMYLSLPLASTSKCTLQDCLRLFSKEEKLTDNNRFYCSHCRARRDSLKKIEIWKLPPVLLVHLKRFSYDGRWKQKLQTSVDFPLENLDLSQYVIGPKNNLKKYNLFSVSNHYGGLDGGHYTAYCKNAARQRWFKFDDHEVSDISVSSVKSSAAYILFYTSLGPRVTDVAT

For orientation: IC50 means the point on the concentration scale where inhibition reaches its midpoint. In the case of `O=C(Cn1c(-c2ccccc2)ncc(C(=O)NC2CC2)c1=O)Nc1ccccc1`, the IC50 was > 40 µM (inactive).

In the case of `CS(=O)(=O)c1cccc(C(=O)Nc2sc3c(c2C(N)=O)CCCC3)c1`, the IC50 was > 40 µM (inactive).

On to `O=c1[nH]c(C2CCN(S(=O)(=O)c3ccc(S(=O)(=O)NC4CCCCC4)cc3)CC2)nc2c1nnn2Cc1c(F)cccc1Cl`, for which the IC50 is > 40 µM (inactive).

Turning to `CC1(C)Cc2c(c(-c3ccco3)nc3sc4c(SCCCc5ccccc5)ncnc4c23)CO1`, the IC50 was 24 µM.

On to `Cc1cccc(NC(=O)CSc2nc3c(cc2C#N)C(=O)CCC3)c1`, for which the IC50 is > 40 µM (inactive).

As for `O=C(NCc1ccc(Br)cc1)c1cc(-c2cccnc2)n[nH]1`, the IC50 is > 40 µM (inactive).

For the compound `O=c1[nH]cccc1NS(=O)(=O)c1ccc(F)cc1`, the IC50 was > 40 µM (inactive).

Regarding `Cc1cccc(NC(=O)Cn2c(=O)n(-c3cc(C)cc(C)c3)c(=O)c3sccc32)c1`, the IC50 was > 40 µM (inactive).

For the compound `Cc1cc(Nc2cccc(Cl)c2)n2nc(-c3cccnc3)nc2n1`, the IC50 is > 40 µM (inactive).

For `Cc1nc(-c2ccccc2)sc1-c1nc(-c2ccccc2)ncc1S(=O)(=O)c1ccccc1`, the IC50 is > 40 µM (inactive).

Turning to `CCOc1ccc(C2/C(=C(\O)c3ccccc3)C(=O)C(=O)N2c2nc3ccc(F)cc3s2)cc1` (stereo not given), the IC50 was > 40 µM (inactive).

For `O=C(/C=C/c1cccc([N+](=O)[O-])c1)N1CCc2ccccc21`, the IC50 was > 40 µM (inactive).

Regarding `O=C(CSc1oc(-c2ccc(F)cc2)nc1S(=O)(=O)c1ccc(F)cc1)Nc1ccc(F)cc1`, the IC50 is > 40 µM (inactive).

On to `Cc1ccc2cc(-c3noc(CCC(=O)NC4CCCC4)n3)c(=O)[nH]c2c1`, for which the IC50 was > 40 µM (inactive).

For the compound `CCOc1ccc(C(=O)CCC(=O)Nc2cccc(S(=O)(=O)Nc3cccc(Cl)c3)c2)cc1`, the IC50 was > 40 µM (inactive).

Consider `CCOC(=O)c1cc2c(ccn2C)n1CC(=O)NC1CC1`, for which the IC50 is > 40 µM (inactive).

With `CCOC(=O)N1CCN(C(=O)c2ccc(CS(=O)c3ccccc3Cl)o2)CC1` (stereo not given), the IC50 is > 40 µM (inactive).

Turning to `O=C(Cn1c(=O)c2ccccc2n(CC(=O)Nc2cccc(F)c2)c1=O)NCCc1ccccc1`, the IC50 is > 40 µM (inactive).

For the compound `COc1ccccc1C(=O)Nc1ccc(-c2nc3ccccc3o2)c(O)c1`, the IC50 was > 40 µM (inactive).

In the case of `O=C(CCn1c(=O)c2ccccc2n(Cc2ccc(F)cc2Cl)c1=O)NCc1ccco1`, the IC50 is > 40 µM (inactive).

For `CCCCCCCc1cc(OC(=O)c2c(CCCCCCC)cc(O)cc2O[C@@H]2O[C@H](CO)[C@@H](O)[C@H](O)[C@H]2O)cc(O)c1C(=O)O`, the IC50 was 8.09 µM.

For `CC(C)=CCC[C@H](C(=O)O)[C@@H]1CC[C@]2(C)C3=C(CC[C@@]12C)[C@@]1(C)CCC(=O)C(C)(C)C1CC3` (stereo not given in full), the IC50 is > 40 µM (inactive).

On to `c1cncc(-c2cnc3sc(NC4CCCCC4)nn23)c1`, for which the IC50 is > 40 µM (inactive).

Turning to `CCOc1ccc(NS(=O)(=O)c2ccc(NC(=O)Nc3ccccc3)cc2)cc1`, the IC50 was > 40 µM (inactive).

`Cc1ccccc1-c1nnc2sc(COc3ccc(Cl)cc3)nn12`: the IC50 was > 40 µM (inactive).

For the compound `COc1cc(CC(=O)Nc2ccccc2N2CCOCC2)cc(OC)c1OC`, the IC50 was > 40 µM (inactive).

In the case of `COc1ccc(CNC(=O)CCCc2nnc3c(=O)n(-c4cc(C)cc(C)c4)ccn23)cc1`, the IC50 was > 40 µM (inactive).

Regarding `CN(C)c1ccc(S(=O)(=O)N2CCCCC2)cc1NC(=O)COc1ccccc1`, the IC50 is > 40 µM (inactive).

In the case of `CCCn1cc(C(=O)N2CCC3(CC2)CC2(CO3)Nc3ccccc3-n3cccc32)c(C)n1` (stereo not given), the IC50 was 37.2 µM.

As for `Cc1ccccc1-c1nc(-c2cn(CC(=O)Nc3ccccc3)cn2)no1`, the IC50 was > 40 µM (inactive).

Take `CCc1cccc(CC)c1NC(=O)COC(=O)c1cc2cccc(OC)c2oc1=O`: the IC50 was > 40 µM (inactive).

For `COc1ccccc1NC(=O)CSC1=NC2(CCCCC2)Nc2ccccc21`, the IC50 was > 40 µM (inactive).

In the case of `N#Cc1cccc(NC(=O)Nc2cccn(Cc3ccc(F)cc3)c2=O)c1`, the IC50 is > 40 µM (inactive).

As to `CCCN1CCN(C(=O)Cn2c(C)ccc(NC(=O)c3ccccc3)c2=O)CC1`, the IC50 was > 40 µM (inactive).

Turning to `CCOc1ccc2c(c1)c(=O)c(C(=O)c1ccccc1)cn2CC(=O)Nc1ccc2c(c1)OCCO2`, the IC50 was > 40 µM (inactive).

With `COc1ccccc1NC(=O)C1=C(C)Nc2nc(SCc3ccccc3F)nn2C1c1ccccn1` (stereo not given), the IC50 was > 40 µM (inactive).

Take `O=c1cc(-c2ccc(O)c(O)c2)oc2cc(O)cc(O)c12`: the half-maximal inhibitory concentration (IC50) was 2.07 µM.

Turning to `COc1cc(C(=O)Nc2ccc(C#N)cc2)ccc1OCC(=O)Nc1ccccc1C(F)(F)F`, the IC50 is > 40 µM (inactive).

On to `Cc1cc(O)c(=O)cc2c1C[C@H]1CC(C)(C)/C=C/C[C@@]3(C)Oc4cc(=O)c(O)cc(C)c4C[C@@H]3C[C@H](O)[C@]1(C)O2`, for which the IC50 is > 40 µM (inactive).

On to `Fc1ccccc1-c1nc2c3cnn(-c4ccccc4)c3ncn2n1`, for which the IC50 is > 40 µM (inactive).

`O=C(Nc1nnc(-c2cccc([N+](=O)[O-])c2)o1)C1CCN(S(=O)(=O)c2ccc3c(c2)CCC3)CC1`: the IC50 was > 40 µM (inactive).

Take `CCCc1ccc(C(=O)[C@@H]2[C@@H](C(=O)c3cccs3)N3c4ccc(C)cc4C(C)=C[C@@H]3[C@@]23C(=O)Nc2ccccc23)cc1`: the IC50 is > 40 µM (inactive).

With `Fc1cccc(Nc2ncnc3c2oc2ccccc23)c1`, the IC50 was > 40 µM (inactive).

As to `Nc1ccc(C(=O)OCC(=O)NC2CCCc3ccccc32)cc1[N+](=O)[O-]` (stereo not given), the IC50 is > 40 µM (inactive).

Regarding `O=C(Cc1ccc(-n2c(=O)c3ccccc3n(Cc3cccc([N+](=O)[O-])c3)c2=O)cc1)NC1CCCC1`, the IC50 was > 40 µM (inactive).

`COc1cc(NC(=O)c2ccc3c(c2)OCO3)ccc1-c1cc2ccccc2oc1=O`: the IC50 was > 40 µM (inactive).

With `COc1cc(NC(=O)Cc2ccccc2)ccc1NC(=O)c1cc2ccccc2o1`, the IC50 was > 40 µM (inactive).

Take `COc1ccc2nc(N3CC(C(=O)Nc4ccc(C(N)=O)cc4)C3)sc2c1`: the IC50 is > 40 µM (inactive).

Take `O=C(Cn1cc(C(=O)c2ccc(F)cc2)c(=O)c2ccccc21)Nc1ccc2c(c1)OCO2`: the IC50 was > 40 µM (inactive).

Consider `COc1ccc(CCNC(=O)CSc2cn(CCNC(=O)c3ccccc3C)c3ccccc23)cc1OC`, for which the IC50 is > 40 µM (inactive).

For the compound `Cc1ccc(NC(=O)Nc2ccccc2OCc2cc(=O)n3cc(C)ccc3n2)cc1`, the IC50 is > 40 µM (inactive).

Consider `Cc1cccc(C(=O)OCC(=O)Nc2ccc3[nH]c(=O)[nH]c3c2)c1`, for which the IC50 is > 40 µM (inactive).

In the case of `Cc1cc(O)c2c3c(c(O)cc2c1)C(=O)c1c(O)cccc1C3=O`, the IC50 is 1.46 µM.

Take `COc1cccc(CNC(=O)c2nnn(CC(=O)Nc3cc(C)ccc3C)c2N)c1`: the IC50 is > 40 µM (inactive).

Turning to `Cc1ccc2nc(CNc3ccc(F)cc3C)cc(=O)n2c1`, the IC50 was > 40 µM (inactive).

In the case of `Cc1cccc2nc(CSc3nc4ccc([N+](=O)[O-])cc4[nH]3)cn12`, the IC50 is > 40 µM (inactive).

On to `O=C1c2c(O)cccc2C2(Oc3cccc4cccc(c34)O2)C2OC12` (stereo not given), for which the IC50 is 7.76 µM.

On to `O=C(CSc1nc2ccccc2[nH]1)Nc1cccc2c1OCCO2`, for which the IC50 was > 40 µM (inactive).

In the case of `Cc1ccc2[nH]c3c(=O)n(Cc4ccc(N(C)C)cc4)cnc3c2c1`, the IC50 is 30.7 µM.

Regarding `COc1cccc(C2c3[nH]c4ccccc4c3C[C@@H]3C(=O)N(CC(O)c4ccccc4)CC(=O)N23)c1` (stereo not given in full), the IC50 was > 40 µM (inactive).

Regarding `Cn1cc2cccc(NC(=O)c3ccc(F)cc3)c2n1`, the IC50 is > 40 µM (inactive).

For the compound `O=C(c1ccc(Cl)cc1)N(c1ccccn1)C1CCCCC1`, the IC50 is > 40 µM (inactive).

As for `O=C(Nc1cccc(Cl)c1)c1cc(-c2cccnc2)n[nH]1`, the IC50 is > 40 µM (inactive).

In the case of `Cc1ccc(NC(=O)Cn2c(=O)n(CC(=O)NCCc3ccccc3)c(=O)c3sccc32)cc1C`, the IC50 is > 40 µM (inactive).

With `O=C(NCCc1nc2ccccc2n1Cc1ccccc1F)c1ccc(Cl)cc1`, the IC50 is > 40 µM (inactive).

Regarding `Brc1ccc(Nc2nc(-c3ccccn3)nc3ccccc23)cc1`, the IC50 is 16.6 µM.

With `O=C(c1ccc2cc[nH]c2c1)N1CCC(Nc2cccnc2)C1` (stereo not given), the IC50 was > 40 µM (inactive).

Take `CCc1nc(SCC(=O)Nc2cc(Cl)ccc2C)c2oc3ccccc3c2n1`: the IC50 was > 40 µM (inactive).

As to `COc1ccc(-c2cc3c(=O)n(CC(=O)NCc4ccccc4)ncn3n2)cc1`, the IC50 is > 40 µM (inactive).

On to `Cc1ccc(NC(=O)Cc2nnc3c(-c4nc(C5CC5)no4)cccn23)cc1`, for which the half-inhibitory concentration (IC50) is 18.7 µM.

As to `Cc1ccnc(NS(=O)(=O)c2ccc(NC(=O)c3ccc(S(=O)(=O)N(C)Cc4ccccc4)cc3)cc2)n1`, the IC50 was > 40 µM (inactive).

Take `COc1ccc(NC(=O)Cn2cc(C(=O)c3ccc(F)cc3)c(=O)c3cc(C)ccc32)cc1`: the IC50 was > 40 µM (inactive).

As for `Cn1c(SCC(=O)c2ccc(F)cc2)nnc1-c1cc2ccccc2o1`, the IC50 is > 40 µM (inactive).

Consider `CCn1cc2c(n1)c(=O)n(Cc1ccccc1)c(=O)n2CC(=O)Nc1ccc(OC)cc1`, for which the IC50 was > 40 µM (inactive).

Turning to `CCc1cc(=O)oc2c(C)c(OCC(=O)NCc3ccccn3)ccc12`, the IC50 was > 40 µM (inactive).

For `COC(=O)c1ccccc1NC(=O)CSc1nnc(CNc2ccc(F)cc2)n1CC1CCCO1` (stereo not given), the IC50 is > 40 µM (inactive).

Take `Cn1c(COc2cccc3cccnc23)nnc1SCC(=O)c1ccc(Cl)cc1Cl`: the IC50 is > 40 µM (inactive).

As to `O=C(Cn1c(=O)c2sccc2n(CC(=O)OCc2ccccc2)c1=O)NCc1ccccc1Cl`, the IC50 was > 40 µM (inactive).

With `CC(=O)NS(=O)(=O)c1ccc(NC(=O)/C=C/c2cn(-c3ccccc3)nc2-c2ccccc2)cc1`, the IC50 was 29.4 µM.

Consider `COc1ccc(CCC(=O)Nc2nnc(C3CC(=O)N(c4ccccc4)C3)s2)cc1` (stereo not given), for which the IC50 was > 40 µM (inactive).
